Test results: patent US20260028354A1, “TETRAHYDRONAPHTHALENE DERIVATIVES AS ESTROGEN RECEPTOR DEGRADERS” (REGENT OF THE UNIVERSITY OF MICHIGAN, priority 2022, published 2026)
Counter-ions that a name gives are not always drawn. Like-named read-outs stand apart in the source and are kept apart here.

Assays:
[1] = molecular target: ER in T47D cells (Homo sapiens (Human), UniProt P03372); experiment: In-cell Western (ICW) ER degradation assay in T47D cells; assay type: cell-based; settings: for DC50: ER degradation
[2] = molecular target: ER in MCF-7 cells (Homo sapiens (Human), UniProt P03372); experiment: In-cell Western (ICW) ER degradation assay in MCF-7 cells; assay type: cell-based; settings: for DC50: MCF-7, ER degradation, read-out: MCF7 DC50
[3] = molecular target: CRBN/DDB1 (Homo sapiens (Human), UniProt Q96SW2); assay type: binding; settings: His tagged CRBN+DDB1, Cy5-labeled Thalidomide probe, one hour; read-out: CRBN HTRF IC50
Description: The binding potency was determined using HTRF assay technology (Perkin Elmer). Compounds were serially diluted in DMSO and […] volume was transferred to white 384-well plate.

[4] = maximal ER degradation, 16 hrs treatment, read-out: T47D Dmax
[5] = MCF7, MCF-7, maximal ER degradation, 16 hrs treatment, read-out: MCF7 Dmax
[6] = read-out: T47D Dmax, T47D, maximal ER degradation, 16 hrs treatment
[7] = MCF7, read-out: MCF7 Dmax, MCF-7, maximal ER degradation, 16 hrs treatment

Sequence of ER in T47D cells (P03372 whole entry): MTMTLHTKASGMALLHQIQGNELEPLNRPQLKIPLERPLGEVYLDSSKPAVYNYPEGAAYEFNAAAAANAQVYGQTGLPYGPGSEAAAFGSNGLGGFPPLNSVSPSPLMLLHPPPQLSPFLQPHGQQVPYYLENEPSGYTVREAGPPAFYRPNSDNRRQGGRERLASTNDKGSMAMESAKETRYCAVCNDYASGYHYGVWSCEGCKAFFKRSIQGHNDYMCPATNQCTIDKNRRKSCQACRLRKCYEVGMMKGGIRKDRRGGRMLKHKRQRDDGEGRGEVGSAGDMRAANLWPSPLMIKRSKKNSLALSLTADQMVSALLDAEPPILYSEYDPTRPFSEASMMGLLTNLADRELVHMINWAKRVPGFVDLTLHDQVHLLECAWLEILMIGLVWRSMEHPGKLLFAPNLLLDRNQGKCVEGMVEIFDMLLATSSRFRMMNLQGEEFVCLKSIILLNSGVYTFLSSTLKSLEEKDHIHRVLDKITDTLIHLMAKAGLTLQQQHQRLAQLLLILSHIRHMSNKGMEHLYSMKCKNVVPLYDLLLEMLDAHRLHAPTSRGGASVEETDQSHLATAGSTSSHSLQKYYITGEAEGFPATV
Sequence of ER in MCF-7 cells (P03372 whole entry): as above
Sequence of CRBN/DDB1 (Q96SW2 whole entry, species assumed): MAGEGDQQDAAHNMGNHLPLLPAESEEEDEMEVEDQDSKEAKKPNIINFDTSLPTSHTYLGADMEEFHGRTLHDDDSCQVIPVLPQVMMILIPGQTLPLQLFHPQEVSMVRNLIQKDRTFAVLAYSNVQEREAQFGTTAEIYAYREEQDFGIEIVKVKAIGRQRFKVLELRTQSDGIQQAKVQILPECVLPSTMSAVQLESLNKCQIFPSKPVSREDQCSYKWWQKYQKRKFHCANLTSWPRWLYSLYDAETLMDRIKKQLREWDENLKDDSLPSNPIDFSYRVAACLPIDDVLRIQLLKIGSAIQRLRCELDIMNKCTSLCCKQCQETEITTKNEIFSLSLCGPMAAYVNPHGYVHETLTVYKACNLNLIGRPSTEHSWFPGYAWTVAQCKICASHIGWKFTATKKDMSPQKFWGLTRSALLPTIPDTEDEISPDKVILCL
Sequence of CRBN/DDB1 (Q16531 whole entry partner, species assumed): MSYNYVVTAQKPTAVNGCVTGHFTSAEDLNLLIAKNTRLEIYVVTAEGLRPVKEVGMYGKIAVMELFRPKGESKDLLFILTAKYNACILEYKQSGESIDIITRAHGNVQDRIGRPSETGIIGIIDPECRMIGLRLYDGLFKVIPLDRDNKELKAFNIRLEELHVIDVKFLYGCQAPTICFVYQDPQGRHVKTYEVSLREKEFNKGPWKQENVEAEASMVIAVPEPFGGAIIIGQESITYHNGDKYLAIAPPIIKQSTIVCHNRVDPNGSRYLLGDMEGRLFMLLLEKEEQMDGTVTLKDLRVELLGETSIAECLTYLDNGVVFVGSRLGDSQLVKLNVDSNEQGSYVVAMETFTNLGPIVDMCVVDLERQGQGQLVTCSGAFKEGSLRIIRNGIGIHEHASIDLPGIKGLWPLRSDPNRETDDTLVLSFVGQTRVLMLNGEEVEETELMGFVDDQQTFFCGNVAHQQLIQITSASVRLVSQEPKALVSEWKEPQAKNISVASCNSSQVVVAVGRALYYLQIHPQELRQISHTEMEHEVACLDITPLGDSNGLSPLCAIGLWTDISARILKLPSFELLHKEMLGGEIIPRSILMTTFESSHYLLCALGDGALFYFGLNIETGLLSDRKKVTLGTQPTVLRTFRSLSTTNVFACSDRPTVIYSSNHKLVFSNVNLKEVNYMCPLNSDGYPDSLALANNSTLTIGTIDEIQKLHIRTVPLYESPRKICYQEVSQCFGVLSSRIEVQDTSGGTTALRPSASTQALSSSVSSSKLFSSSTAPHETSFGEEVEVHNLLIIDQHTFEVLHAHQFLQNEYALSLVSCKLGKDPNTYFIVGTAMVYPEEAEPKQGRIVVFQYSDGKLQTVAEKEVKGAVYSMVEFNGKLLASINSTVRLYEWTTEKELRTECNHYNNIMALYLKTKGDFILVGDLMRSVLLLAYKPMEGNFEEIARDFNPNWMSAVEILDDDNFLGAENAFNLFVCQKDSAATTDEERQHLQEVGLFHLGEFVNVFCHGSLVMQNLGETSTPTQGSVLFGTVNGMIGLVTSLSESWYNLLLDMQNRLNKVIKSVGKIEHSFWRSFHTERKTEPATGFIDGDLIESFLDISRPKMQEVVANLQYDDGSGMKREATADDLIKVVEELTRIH

Row | SMILES | DC50 ([1]; 16 hrs treatment) [µM] | Dmax [1, 4] [%] | Dmax [2, 5] [%] | DC50 ([2]; 16 hrs treatment) [µM] | IC50 [3] [µM] | T47D Dmax ([1]; maximal ER degradation, 16 hrs treatment) | MCF7 Dmax ([2]; MCF-7, maximal ER degradation, 16 hrs treatment) | Dmax [1, 6] [%] | Dmax [2, 7] [%]
1 | COc1cc(N2CCC(CN3CCN4c5ccc6c(c5OC[C@@H]4C3)CN([C@@H]3CCC(=O)NC3=O)C6=O)CC2)ccc1[C@@H]1c2ccc(O)cc2CC[C@@H]1c1ccccc1 (stereo in doubt) [Compound A23, (R)-3-((S)-7-((1-(4-((1S,2S)-6-hydroxy-2-phenyl-1,2,3,4-tetrahydronaphthalen-1-yl)-3-methoxyphenyl)piperidin-4-yl)methyl)-1-oxo-1,3,5,5a,6,7,8,9-oCtahydro-2H-pyrazino [1′,2′:4,5][1,4]oxazino[2,3-e]isoindol-2-yl)piperidine-2,6-dione] | 0.01 to 0.1 | 50 to 75 | 25 to 50 | 0.01 to 0.1 | < 0.05 |  |  |  | 
2 | COc1cc(N2CCC3(CC2)CC(CN2CCC(c4ccc(NC5CCC(=O)NC5=O)cc4F)CC2)C3)ccc1[C@@H]1c2ccc(O)cc2CC[C@@H]1c1ccccc1 (stereo in doubt) [Compound A106, (R)-3-((3-fluoro-4-(1-((7-(4-((1S,2S)-6-hydroxy-2-phenyl-1,2,3,4-tetrahydronaphthalen-1-yl)-3-methoxyphenyl)-7-aza-spiro[3.5]nonan-2-yl)methyl)-piperidin-4-yl)phenyl)amino)-piperidine-2,6-dione] | < 0.001 |  |  | < 0.001 | 0.05 to 0.5 | B (“B”: >50 and <75%) | B (“B”: >50 and <75%) |  | 
3 | COc1cc(N2CCC3(CC2)CC(CN2CCN4c5ccc(C(=O)N[C@H]6CCC(=O)NC6=O)nc5OCC4C2)C3)ccc1[C@@H]1c2ccc(O)cc2CC[C@@H]1c1ccccc1 (stereo in doubt) [Compound A108, (S)-N-((S)-2,6-dioxopiperidin-3-yl)-3-((7-(4-((1S,2S)-6-hydroxy-2-phenyl-1,2,3,4-tetra-hydronaphthalen-1-yl)-3-meth-oxyphenyl)-7-azaspiro[3.5]nonan-2-yl)methyl)-1,2,3,4,4a, 5-hexahydropyrazino[1,2-d] pyrido[2,3-b][1,4]oxazine-8-carboxamide] | < 0.001 | 50 to 75 | 50 to 75 | < 0.001 | 0.5 to 5 |  |  |  | 
4 | COc1cc(C(=O)NC2CCC(=O)NC2=O)ncc1N1CCN(CC2CCN(c3ccc([C@@H]4c5ccc(O)cc5CC[C@@H]4c4ccccc4)cc3)CC2)CC1 (stereo partly drawn) [Compound A5, N-(2,6-dioxopiperidin-3-yl)-5-(4-((1-(4-((1R,2S)-6-hydroxy-2-phenyl-1,2,3,4-tetrahydro-naphthalen-1-yl)phenyl)piper-idin-4-yl)methyl)piperazin-1-yl)-4-methoxypicolinamide] | < 0.001 | 25 to 50 | 50 to 75 | < 0.001 | > 5 |  |  |  | 
5 | O=C1CC[C@H](N2Cc3cc4c(cc3C2=O)OC[C@H]2CN(C[C@@H]3COC5(CCN(c6ccc([C@H]7c8ccc(O)cc8CC[C@H]7c7ccccc7)cc6)CC5)C3)CCN42)C(=O)N1 [Compound A20, (S)-3-((R)-3-(((R)-8-(4-((1S, 2R)-6-hydroxy-2-phenyl-1,2,3,4-tetrahydronaphthalen-1-yl)phenyl)-1-oxa-8-azaspiro [4.5]decan-3-yl)methyl)-8-oxo-1,2,3,4,4a,5,8,10-oCtahydro-9H-pyrazino[1′,2′:4,5][1,4]oxazino[2,3-f]isoindol-9-yl)-piperidine-2,6-dione] | < 0.001 | 50 to 75 | 50 to 75 | < 0.001 | 0.05 to 0.5 |  |  |  | 
6 | COc1cc(N2CCC(CN3CCC4(CC3)COc3c4ccc4c3CN([C@H]3CCC(=O)NC3=O)C4=O)CC2)ccc1[C@H]1c2ccc(O)cc2CC[C@H]1c1ccccc1 [Compound A36, (R)-3-(1′-((1-(4-((1S,2S)-6-hydroxy-2-phenyl-1,2,3,4-tetrahydronaphthalen-1-yl)-3-methoxyphenyl)piperidin-4-yl)methyl)-6-oxo-6,8-dihydro-2H,7H-spiro[furo[2,3-e]iso-indole-3,4′-piperidin]-7-yl)-piperidine-2,6-dione formate] | < 0.001 |  |  | < 0.001 | < 0.05 |  |  | 25 to 50 | 50 to 75
7 | COc1cc(N2CCC(CN3CCC4(CC3)COc3c4ccc4c3CN([C@H]3CCC(=O)NC3=O)C4=O)CC2)ccc1[C@@H]1c2ccc(O)cc2CC[C@@H]1c1ccccc1 [Compound A37, (R)-3-(1′-((1-(4-((1R,2R)-6-hydroxy-2-phenyl-1,2,3,4-tetrahydronaphthalen-1-yl)-3-methoxyphenyl)piperidin-4-yl)methyl)-6-oxo-6,8-dihydro-2H,7H-spiro[furo[2,3-e]iso-indole-3,4′-piperidin]-7-yl)-piperidine-2,6-dione] | < 0.001 |  |  | < 0.001 | < 0.05 |  |  | 25 to 50 | 25 to 50
8 | COc1cc(N2CCC(CN3CCN4c5ccc6c(c5OC[C@H]4C3)CN([C@H]3CCC(=O)NC3=O)C6=O)CC2)c(F)cc1[C@H]1c2ccc(O)cc2CC[C@H]1c1ccccc1 [Compound A39, (S)-3-((R)-7-((1-(2-fluoro-4-((1R,2R)-6-hydroxy-2-phenyl-1,2,3,4-tetrahydronaphthalen-1-yl)-5-methoxyphenyl)piper-idin-4-yl)methyl)-1-oxo-1,3,5,5a,6,7,8,9-octahydro-2H-pyrazino[1′,2′:4,5][1,4]oxazino [2,3-e]isoindol-2-yl)piperidine-2,6-dione] | 0.001 to 0.01 | 50 to 75 | 25 to 50 | 0.01 to 0.1 | 0.05 to 0.5 |  |  |  | 
9 | O=C1CCC(Nc2ccc(C34CCN(C[C@H]5COC6(CCN(c7ccc([C@@H]8c9ccc(O)cc9CC[C@@H]8c8ccccc8)cc7)CC6)C5)CC3C4(F)F)cc2)C(=O)N1 (stereo partly drawn) [Compound A44, (3S)-3-((4-(7,7-difluoro-3-(((S)-8-(4-((1R,2S)-6-hydroxy-2-phenyl-1,2,3,4-tetrahydro-naphthalen-1-yl)phenyl)-1-oxa-8-azaspiro[4.5]decan-3-yl)-methyl)-3-azabicyclo[4.1.0]heptan-6-yl)phenyl)amino)-piperidine-2,6-dione] | > 0.1 |  |  | > 0.1 | > 5 |  |  | < 25 | < 25
10 | O=C1CCC(Nc2ccc(C34CCN(C[C@@H]5COC6(CCN(c7ccc([C@@H]8c9ccc(O)cc9CC[C@@H]8c8ccccc8)cc7)CC6)C5)CC3C4(F)F)cc2)C(=O)N1 (stereo partly drawn) [Compound A45, (3S)-3-((4-(7,7-difluoro-3-(((R)-8-(4-((1R,2S)-6-hydroxy-2-phenyl-1,2,3,4-tetrahydro-naphthalen-1-yl)phenyl)-1-oxa-8-azaspiro[4.5]decan-3-yl)-methyl)-3-azabicyclo[4.1.0]heptan-6-yl)phenyl)amino)-piperidine-2,6-dione] | > 0.1 |  |  | > 0.1 | > 5 |  |  | < 25 | < 25
11 | COc1cc(N2CCC3(CC2)CC(CN2CCN4c5ccc6c(c5OC[C@H]4C2)CN([C@H]2CCC(=O)NC2=O)C6=O)CO3)ccc1[C@@H]1c2ccc(O)cc2CC[C@@H]1c1ccccc1 (stereo partly drawn) [Compound A53, (3S)-3-((5aR)-7-((8-(4-((1S, 2S)-6-hydroxy-2-phenyl-1,2,3,4-tetrahydronaphthalen-1-yl)-3-methoxyphenyl)-1-oxa-8-azaspiro[4.5]decan-3-yl)-methyl)-1-oxo-1,3,5,5a,6,7,8,9-octahydro-2H-pyrazino[1′,2′: 4,5][1,4]oxazino[2,3-e]isoindol-2-yl)piperidine-2,6-dione] | 0.001 to 0.01 | 50 to 75 | 25 to 50 | 0.01 to 0.1 | < 0.05 |  |  |  | 
12 | COc1cc(N2CCC3(CC2)CC(CN2CCC4(CC2)COc2c4ccc4c2CN([C@H]2CCC(=O)NC2=O)C4=O)CO3)ccc1[C@@H]1c2ccc(O)cc2CC[C@@H]1c1ccccc1 (stereo partly drawn) [Compound A55, (3S)-3-(1′-((8-(4-((1S,2S)-6-hydroxy-2-phenyl-1,2,3,4-tetrahydronaphthalen-1-yl)-3-methoxyphenyl)-1-oxa-8-azaspiro[4.5]decan-3-yl)meth-yl)-6-oxo-6,8-dihydro-2H,7H-spiro[furo[2,3-e]isoindole-3,4′-piperidin]-7-yl)piperidine-2,6-dione] | 0.001 to 0.01 |  |  | 0.01 to 0.1 | < 0.05 |  |  | 50 to 75 | 25 to 50
13 | COc1cc(N2CCC3(CC2)CC(CN2CCN4c5cc6c(cc5OC[C@@H]4C2)C(=O)N([C@H]2CCC(=O)NC2=O)C6)CO3)ccc1[C@@H]1c2ccc(O)cc2CC[C@@H]1c1ccccc1 (stereo partly drawn) [Compound A57, (3S)-3-((4aS)-3-((8-(4-((1S,2S)-6-hydroxy-2-phenyl-1,2,3,4-tetrahydronaphthalen-1-yl)-3-methoxyphenyl)-1-oxa-8-aza-spiro[4.5]decan-3-yl)methyl)-8-oxo-1,2,3,4,4a,5,8,10-octa-hydro-9H-pyrazino[1′,2′:4,5] [1,4]oxazino[2,3-f]isoindol-9-yl)pipcridinc-2,6-dionc] | 0.001 to 0.01 | 50 to 75 | 25 to 50 | 0.01 to 0.1 | 0.05 to 0.5 |  |  |  | 
14 | O=C1CCC(NC(=O)c2ccc(N3CCN(CC4CCN(c5ccc([C@@H]6c7ccc(O)cc7CC[C@@H]6c6ccccc6)cc5)CC4)CC3)cn2)C(=O)N1 (stereo partly drawn) [Compound A58, N-(2,6-dioxopiperidin-3-yl)-5-(4-((1-(4-((1R,2S)-6-hydroxy-2-phenyl-1,2,3,4-tetrahydro-naphthalen-1-yl)phenyl)piper-idin-4-yl)methyl)piperazin-1-yl)picolinamide] | < 0.001 | 50 to 75 | > 75 | < 0.001 | > 5 |  |  |  | 
